The target in this test is T1, CDK9/CycTI (Homo sapiens, UniProt P50750).
T1 construct: purchased Carna biosciences 04-110
Description: In vitro kinase assay (ADP-Glo Kinase Assay Kit), CDK9/CycTI. In kind it is biochemical. The conditions noted are these: 30 ng CDK9/CycTI, 30 μM CDKtide, 10 μM ATP, 2 hours at room temperature; 8 to 10-point dose response (Tier2); read-out: IC50 Score. The procedure:
In vitro kinase assay was performed in white, 384-low volume plates in 5 μl reaction volume consisting of 30 ng CDK9/CycTI (Carna biosciences #04-110), 30 μM CDKtide (Signalchem #C06-58) and 10 μM ATP made in reaction buffer (40 mM Tris, pH 7.5; 20 mM MgCl2; 0.1 mg/ml BSA; 50 μM DTT) at 1 μM & 10 μM compound concentration for Tier1 assay and 8 to 10-point dose response curve for Tier2 assay. After 2 hours of incubation at room temperature, the amounts of […] in the kinase reaction were quantified using ADP-Glo™ Kinase Assay Kit (Promega #V9102). Briefly, 5 μl of ADP-Glo™ reagent was added to stop the kinase reaction and plate was incubated for 40 minutes at room temperature. Subsequently, 10 μl of Kinase Detection Reagent was added and luminescence was recorded after 30 minutes of incubation at room temperature.
The inhibition of kinase activity was determined relative to positive control (2% DMSO) and IC50 was calculated using GraphPad prism software (four parameter-variable slope equation).

The structures appear in SMILES notation.

T1 sequence (P50750 whole entry): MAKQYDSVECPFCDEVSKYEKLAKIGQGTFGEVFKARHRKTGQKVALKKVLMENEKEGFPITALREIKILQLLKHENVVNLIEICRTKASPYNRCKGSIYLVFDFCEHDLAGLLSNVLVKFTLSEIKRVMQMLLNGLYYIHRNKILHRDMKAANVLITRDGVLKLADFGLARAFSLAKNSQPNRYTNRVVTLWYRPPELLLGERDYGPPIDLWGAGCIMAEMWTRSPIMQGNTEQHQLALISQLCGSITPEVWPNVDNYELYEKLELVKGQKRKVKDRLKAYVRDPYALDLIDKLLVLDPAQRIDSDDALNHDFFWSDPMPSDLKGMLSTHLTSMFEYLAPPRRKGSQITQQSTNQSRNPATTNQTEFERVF
T1 sequence (O60563 whole entry partner): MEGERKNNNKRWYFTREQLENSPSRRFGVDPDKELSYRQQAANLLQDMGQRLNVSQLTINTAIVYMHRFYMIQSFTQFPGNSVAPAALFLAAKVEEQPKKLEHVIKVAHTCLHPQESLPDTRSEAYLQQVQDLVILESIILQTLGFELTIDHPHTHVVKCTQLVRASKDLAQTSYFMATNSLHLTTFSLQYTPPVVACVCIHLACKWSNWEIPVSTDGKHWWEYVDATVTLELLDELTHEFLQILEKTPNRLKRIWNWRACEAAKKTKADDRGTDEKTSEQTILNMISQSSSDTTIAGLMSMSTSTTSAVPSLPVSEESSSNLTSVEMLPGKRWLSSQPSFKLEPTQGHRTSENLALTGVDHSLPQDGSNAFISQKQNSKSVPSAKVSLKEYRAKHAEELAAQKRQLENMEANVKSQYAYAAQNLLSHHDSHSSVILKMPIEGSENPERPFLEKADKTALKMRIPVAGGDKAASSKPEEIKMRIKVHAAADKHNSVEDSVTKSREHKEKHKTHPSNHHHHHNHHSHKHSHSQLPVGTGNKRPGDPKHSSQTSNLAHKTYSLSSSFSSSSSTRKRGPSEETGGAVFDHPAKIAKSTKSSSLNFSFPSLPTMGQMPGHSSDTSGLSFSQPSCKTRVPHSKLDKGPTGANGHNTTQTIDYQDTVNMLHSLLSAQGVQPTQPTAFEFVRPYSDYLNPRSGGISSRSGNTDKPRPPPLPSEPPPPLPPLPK

For orientation: IC50 means the midpoint of a concentration-inhibition curve. Take `CC(=O)N1CCC[C@H]1C(=O)Nc1nc2ccc3cc(F)ccc3c2s1` [Compound 5, (S)-1-acetyl-N-(7-fluoronaphtho[2,1-d]thiazol-2-yl)pyrrolidine-2-carboxamide]: the IC50 lay within 1000 to 20000 nM. Next, `CC(=O)Nc1nc2ccc3cc(F)ccc3c2s1` [Compound 12, N-(7-fluoronaphtho[2,1-d]thiazol-2-yl)acetamide]: 100 to 500 nM.

For `CS(=O)(=O)N[C@@H]1CCC[C@H](C(=O)Nc2nc3c(s2)-c2ccc(F)cc2CC3)C1` [Compound 13-b, (1S,3R)—N-(7-fluoro-4,5-dihydronaphtho[2,1-d]thiazol-2-yl)-3-(methylsulfonamido)cyclohexane-1-carboxamide], the IC50 was 100 to 500 nM.

Values taken from US20220281863A1, “COMPOUNDS, COMPOSITIONS AND METHODS OF TREATING DISORDERS” (Reverie Labs, Inc., priority 2019, published 2022).
